These results are taken from US9085555B2, “Complement pathway modulators and uses thereof” (priority 2011, dated 2015).

SMILES strings stand for the structures.

As a reminder, the IC50 is the concentration needed to halve the response being measured.

The target in this test is Factor D (Homo sapiens (Human), UniProt P00746). The experiment in a line: biochemical. It is filed as biochemical. To be noted: read-out: IC50.
Sequence of Factor D (P00746 26-253): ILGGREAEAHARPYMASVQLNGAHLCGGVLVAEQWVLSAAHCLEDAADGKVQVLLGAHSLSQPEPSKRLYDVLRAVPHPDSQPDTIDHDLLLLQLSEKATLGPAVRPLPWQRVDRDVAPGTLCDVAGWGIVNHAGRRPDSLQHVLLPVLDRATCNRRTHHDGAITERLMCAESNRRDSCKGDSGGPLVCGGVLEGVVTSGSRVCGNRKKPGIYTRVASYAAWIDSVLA

With `NC(=O)n1cc(NC(=O)N2CC[C@@H](O)[C@H]2C(=O)NCc2cccc(Cl)c2F)c2ccccc21` [Example 213, (2S,3R)-3-Hydroxy-pyrrolidine-1,2-dicarboxylic acid 1-[(1-carbamoyl-1H-indol-3-yl)-amide] 2-(3-chloro-2-fluoro-benzylamide)], the IC50 is 12 nM. The value for `COC[C@@]12C[C@@H]1N(C(=O)Nc1cn(C(N)=O)c3ccccc13)[C@H](C(=O)NCc1cccc(Cl)c1F)C2` [Example 214, (1S,3S,5R)-5-Methoxymethyl-2-aza-bicyclo[3.1.0]hexane-2,3-dicarboxylic acid 2-[(1-carbamoyl-1H-indol-3-yl)-amide] 3-(3-chloro-2-fluoro-benzylamide)] was 1570 nM. The value for `NC(=O)n1cc(NC(=O)N2C[C@H](F)C[C@H]2C(=O)NCc2cncc(F)c2)c2ccccc21` [Example 215, (2S,4R)-4-Fluoro-pyrrolidine-1,2-dicarboxylic acid 1-[(1-carbamoyl-1H-indol-3-yl)-amide] 2-[(5-fluoro-pyridin-3-ylmethyl)-amide]] was 386 nM; that for `COc1ccc2c(NC(=O)N3C4CC4C[C@H]3C(=O)NCc3cccc(Cl)c3F)cn(C(N)=O)c2c1` (stereo partly drawn) [Example 216, (1R,3S,5R)-2-Aza-bicyclo[3.1.0]hexane-2,3-dicarboxylic acid 2-[(1-carbamoyl-6-methoxy-1H-indol-3-yl)-amide] 3-(3-chloro-2-fluoro-benzylamide)] was 65 nM; that for `NC(=O)n1cc(NC(=O)N2[C@@H]3C[C@@H]3C[C@H]2C(=O)N[C@H](CO)c2cccc(Br)c2)c2ccccc21` [Example 217, (1R,3S,5R)-2-Azabicyclo[3.1.0]hexane-2,3-dicarboxylic acid 3-{[(S)-1-(3-bromo-phenyl)-2-hydroxy-ethyl]-amide} 2-[(1-carbamoyl-1H-indol-3-yl)-amide]] was 41 nM. `COC(=O)c1cccc(NC(=O)[C@@H]2CCCN2C(=O)Nc2cn(C(N)=O)c3ccccc23)c1` [Example 219, 3-{[(S)-1-(1-Carbamoyl-1H-indol-3-ylcarbamoyl)-pyrrolidine-2-carbonyl]-amino}-benzoic acid methyl ester]: the IC50 is 1850 nM. For `NC(=O)n1cc(NC(=O)N2CCCC[C@H]2C(=O)NCc2cccc(Cl)c2F)c2ccccc21` [Example 220, (S)-Piperidine-1,2-dicarboxylic acid 1-[(1-carbamoyl-1H-indol-3-yl)-amide] 2-(3-chloro-2-fluoro-benzylamide)], the IC50 was 233 nM.

Turning to `CC(=O)NC[C@@]1(F)C[C@@H](C(=O)NCc2cccc(Cl)c2F)N(C(=O)Nc2cn(C(N)=O)c3ccccc23)C1` [Example 221, (2S,4S)-4-(Acetylamino-methyl)-4-fluoro-pyrrolidine-1,2-dicarboxylic acid 1-[(1-carbamoyl-1H-indol-3-yl)-amide] 2-(3-chloro-2-fluoro-benzylamide)], the IC50 was 23 nM.

On to `NC(=O)n1cc(NC(=O)N2C[C@H](F)C[C@H]2C(=O)NCc2cccc(C(F)(F)F)c2F)c2ccccc21` [Example 222, (2S,4R)-4-Fluoro-pyrrolidine-1,2-dicarboxylic acid 1-[(1-carbamoyl-1H-indol-3-yl)-amide] 2-(2-fluoro-3-trifluoromethyl-benzylamide)], for which the IC50 worked out at 137 nM.

As for `NC(=O)n1cc(NC(=O)N2[C@@H]3C[C@@H]3C[C@H]2C(=O)N[C@H](CCO)c2cccc(Cl)c2F)c2ccccc21` [Example 223, (1R,3S,5R)-2-Azabicyclo[3.1.0]hexane-2,3-dicarboxylic acid 2-[(1-carbamoyl-1H-indol-3-yl)-amide] 3-{[(R)-1-(3-chloro-2-fluoro-phenyl)-3-hydroxy-propyl]-amide}], the IC50 is 12 nM. On to `COc1ccc(CNC(=O)[C@@H]2SCCN2C(=O)Nc2cn(C(N)=O)c3ccccc23)c(F)c1F` [Example 225, (S)-Thiazolidine-2,3-dicarboxylic acid 3-[(1-carbamoyl-1H-indol-3-yl)-amide] 2-(2,3-difluoro-4-methoxy-benzylamide)], for which the IC50 is 350 nM. For `NC(=O)n1cc(NC(=O)N2[C@@H]3C[C@@H]3C[C@H]2C(=O)NCc2cccnc2)c2ccccc21` [Example 226, (1R,3S,5R)-2Azabicyclo[3.1.0]hexane-2,3-dicarboxylic acid 2-[(1-carbamoyl-1H-indol-3-yl)amide] 3-[(pyridin-3-ylmethyl)-amide]], the IC50 was 417 nM. Consider `C[C@H]1CCN(C(=O)Nc2cn(C(N)=O)c3ccccc23)[C@@H]1C(=O)Nc1cccc(OC(F)(F)F)c1` [Example 227, (2S,3S)-3-Methyl-pyrrolidine-1,2-dicarboxylic acid 1-[(1-carbamoyl-1H-indol-3-yl)-amide] 2-[(3-trifluoromethoxy-phenyl)-amide]], for which the IC50 is 800 nM.

Turning to `NC(=O)n1cc(NC(=O)N2C3CC3C[C@H]2C(=O)NCc2cncc(Cl)c2)c2ccccc21` (stereo partly drawn) [Example 228, (1R,3S,5R)-2-Aza-bicyclo[3.1.0]hexane-2,3-dicarboxylic acid 2-[(1-carbamoyl-1H-indol-3-yl)-amide] 3-[(5-chloro-pyridin-3-ylmethyl)-amide]], the IC50 stood at 100 nM. Take `C[C@@]1(F)C[C@@H](C(=O)N[C@H](CCO)c2cccc(Cl)c2F)N(C(=O)Nc2cn(C(N)=O)c3ccccc23)C1` [Example 229, (2S,4R)-4-Fluoro-4-methyl-pyrrolidine-1,2-dicarboxylic acid 1-[(1-carbamoyl-1H-indol-3-yl)-amide] 2-{[(R)-1-(3-chloro-2-fluoro-phenyl)-3-hydroxy-propyl]-amide}]: the IC50 was determined as 29 nM.

Consider `NC(=O)n1cc(NC(=O)N2C[C@H](F)C[C@H]2C(=O)NCc2ccncc2F)c2ccccc21` [Example 230, (2S,4R)-4-Fluoro-pyrrolidine-1,2-dicarboxylic acid 1-[(1-carbamoyl-1H-indol-3-yl)-amide] 2-[(3-fluoro-pyridin-4-ylmethyl)-amide]], for which the IC50 is 2550 nM.

Turning to `COC[C@@H](NC(=O)[C@@H]1[C@@H]2C[C@@H]2CN1C(=O)Nc1cn(C(N)=O)c2ccccc12)c1cccc(Cl)c1F` [Example 231, (1R,2S,5S)-3-Aza-bicyclo[3.1.0]hexane-2,3-dicarboxylic acid 3-[(1-carbamoyl-1H-indol-3-yl)-amide] 2-{[(S)-1-(3-chloro-2-fluoro-phenyl)-2-methoxy-ethyl]-amide}], the IC50 came to 103 nM. With `NC(=O)n1cc(NC(=O)N2C[C@H](F)C[C@H]2C(=O)NCc2ccnc(C(F)(F)F)c2F)c2ccccc21` [Example 232, (2S,4R)-4-Fluoro-pyrrolidine-1,2-dicarboxylic acid 1-[(1-carbamoyl-1H-indol-3-yl)-amide] 2-[(3-fluoro-2-trifluoromethyl-pyridin-4-ylmethyl)-amide]], the IC50 stood at 989 nM. On to `NC(=O)n1cc(NC(=O)N2CCC[C@H]2C(=O)Nc2cccc(S(N)(=O)=O)c2)c2ccccc21` [Example 233, (S)-Pyrrolidine-1,2-dicarboxylic acid 1-[(1-carbamoyl-1H-indol-3-yl)-amide] 2-[(3-sulfamoyl-phenyl)-amide]], for which the IC50 was determined as 850 nM. In the case of `COc1cc(F)c(F)c(CNC(=O)[C@@H]2SCCN2C(=O)Nc2cn(C(N)=O)c3ccccc23)c1` [Example 235, (S)-Thiazolidine-2,3-dicarboxylic acid 3-[(1-carbamoyl-1H-indol-3-yl)-amide] 2-(2,3-difluoro-5-methoxy-benzylamide)], the IC50 turned out to be 80 nM.

For the compound `COC[C@@H](NC(=O)[C@@H]1C[C@H]2C[C@H]2N1C(=O)Nc1cn(C(N)=O)c2ccccc12)c1cccc(Cl)c1F` [Example 236, (1R,3S,5R)-2-Aza-bicyclo[3.1.0]hexane-2,3-dicarboxylic acid 2-[(1-carbamoyl-1H-indol-3-yl)-amide] 3-{[(S)-1-(3-chloro-2-fluoro-phenyl)-2-methoxy-ethyl]-amide}], the IC50 was determined as 8 nM. For the compound `NC(=O)n1cc(NC(=O)N2C[C@H](F)C[C@H]2C(=O)NCc2cncc(Cl)c2)c2ccccc21` [Example 237, (2S,4R)-4-Fluoro-pyrrolidine-1,2-dicarboxylic acid 1-[(1-carbamoyl-1H-indol-3-yl)-amide] 2-[(5-chloro-pyridin-3-ylmethyl)-amide]], the IC50 is 70 nM. The value for `CCc1cccc(NC(=O)[C@@H]2CCCN2C(=O)Nc2cn(C(N)=O)c3ccccc23)n1` [Example 238, (S)-Pyrrolidine-1,2-dicarboxylic acid 1-[(1-carbamoyl-1H-indol-3-yl)-amide] 2-[(6-ethyl-pyridin-2-yl)-amide]] was 650 nM; that for `C[C@@]1(F)C[C@@H](C(=O)N[C@H](CO)c2cccc(Cl)c2F)N(C(=O)Nc2cn(C(N)=O)c3ccccc23)C1` [Example 239, (2S,4R)-4-Fluoro-4-methyl-pyrrolidine-1,2-dicarboxylic acid 1-[(1-carbamoyl-1H-indol-3-yl)-amide] 2-{[(S)-1-(3-chloro-2-fluoro-phenyl)-2-hydroxy-ethyl]-amide}] was 52 nM.

Turning to `CNC(=O)c1cc(Cl)c(F)c(CNC(=O)[C@@H]2C[C@@H](F)CN2C(=O)Nc2cn(C(N)=O)c3ccccc23)c1` [Example 240, (2S,4R)-4-Fluoro-pyrrolidine-1,2-dicarboxylic acid 1-[(1-carbamoyl-1H-indol-3-yl)-amide] 2-(3-chloro-2-fluoro-5-methylcarbamoyl-benzylamide)], the IC50 was found to be 141 nM. Take `NC(=O)n1cc(NC(=O)N2C[C@](F)(CF)C[C@H]2C(=O)NCc2cccc(Cl)c2F)c2ccccc21` [Example 241, (2S,4S)-4-Fluoro-4-fluoromethyl-pyrrolidine-1,2-dicarboxylic acid 1-[(1-carbamoyl-1H-indol-3-yl)-amide] 2-(3-chloro-2-fluoro-benzylamide)]: the IC50 turned out to be 250 nM.

Consider `NC(=O)n1cc(NC(=O)N2C3CC3C[C@H]2C(=O)NCc2ncccc2F)c2ccccc21` (stereo partly shown) [Example 242], for which the IC50 was determined as 200 nM. For the compound `NC(=O)n1cc(NC(=O)N2C[C@@](F)(CN3CCOCC3)C[C@H]2C(=O)NCc2cccc(Cl)c2F)c2ccccc21` [Example 243, (2S,4S)-4-Fluoro-4-morpholin-4-ylmethyl-pyrrolidine-1,2-dicarboxylic acid 1-[(1-carbamoyl-1H-indol-3-yl)-amide] 2-(3-chloro-2-fluoro-benzylamide)], the IC50 was found to be 200 nM.
